Laboratory results: ChEMBL document CHEMBL4000165, “Chemosensitizing effect of Paris Saponin I on Camptothecin and 10-hydroxycamptothecin in lung cancer cells via p38 MAPK, ERK, and Akt signaling pathways” (Eur J Med Chem, 2017)
Activity calls are given as the source filed them. The calls are words filed in the database; no cut-off is given here.

Key:
[1] = tested on: NCI-H520; assay: Cytotoxicity against human NCI-H520 cells assessed as reduction in cell viability after 48 hrs by MTT assay; type: functional, cell-based; conditions: NCI-H520, 48 h
[2] = tested on: NCI-H460; assay: Cytotoxicity against human NCI-H460 cells assessed as reduction in cell viability after 48 hrs by MTT assay; type: functional, cell-based; conditions: NCI-H460, 48 h
[3] = tested on: NCI-H1299; assay: Cytotoxicity against human NCI-H1299 cells assessed as reduction in cell viability by measuring combinantion index at 0.3 to 0.6 uM after 48 hrs in presence of CPT by MTT assay; type: functional
[4] = tested on: NCI-H460; assay: Cytotoxicity against human NCI-H460 cells assessed as reduction in cell viability by measuring combinantion index at 0.3 to 0.6 uM after 48 hrs in presence of CPT by MTT assay; type: functional
[5] = tested on: NCI-H446; assay: Cytotoxicity against human NCI-H446 cells assessed as reduction in cell viability by measuring combinantion index at 0.3 to 0.6 uM after 48 hrs in presence of CPT by MTT assay; type: functional
[6] = tested on: NCI-H1299; assay: Cytotoxicity against human NCI-H1299 cells assessed as reduction in cell viability at 0.3 to 0.6 uM after 48 hrs in presence of HCPT by MTT assay; type: functional, cell-based
[7] = tested on: NCI-H1299; assay: Induction of apoptosis in human NCI-H1299 cells at 0.3 uM up to 20 mins in presence of CPT by acridine orange/ ethidium bromide staining based fluorescence microscopic method relative to control; type: functional
[8] = tested on: NCI-H446; assay: Induction of apoptosis in human NCI-H446 cells at 0.6 uM up to 20 mins in presence of CPT by acridine orange/ ethidium bromide staining based fluorescence microscopic method relative to control; type: functional
[9] = tested on: NCI-H1299; assay: Induction of apoptosis in human NCI-H1299 cells at 0.3 uM after 24 to 48 hrs by Annexin-V FITC/propidium iodide staining based flow cytometry; type: functional, cell-based
[10] = tested on: NCI-H460; assay: Induction of apoptosis in human NCI-H460 cells at 0.6 uM after 24 to 48 hrs by Annexin-V FITC/propidium iodide staining based flow cytometry; type: functional, cell-based
[11] = tested on: NCI-H446; assay: Induction of apoptosis in human NCI-H446 cells at 0.6 uM after 24 to 48 hrs by Annexin-V FITC/propidium iodide staining based flow cytometry; type: functional, cell-based
[12] = tested on: NCI-H1299; assay: Induction of apoptosis in human NCI-H1299 cells assessed as pro-apoptotic cells at 0.3 uM after 48 hrs in presence of CPT by Annexin-V FITC/propidium iodide staining based flow cytometry; type: functional
[13] = tested on: NCI-H1299; assay: Induction of apoptosis in human NCI-H1299 cells assessed as increase in total apoptotic cells at 0.3 uM after 48 hrs in presence of CPT by Annexin-V FITC/propidium iodide staining based flow cytometry; type: functional, cell-based
[14] = tested on: NCI-H1299; assay: Induction of apoptosis in human NCI-H1299 cells assessed as increase in pro-apoptotic cells at 0.3 uM after 48 hrs in presence of HCPT by Annexin-V FITC/propidium iodide staining based flow cytometry; type: functional, cell-based
[15] = tested on: NCI-H460; assay: Induction of apoptosis in human NCI-H460 cells at 0.6 uM in presence of HCPT by Annexin-V FITC/propidium iodide staining based flow cytometry; type: functional, cell-based; conditions: TDE = time-dependent effect
[16] = tested on: NCI-H460; assay: Induction of apoptosis in human NCI-H460 cells assessed as activation of caspase-3/7 at 0.6 uM after 48 hrs by luciferase reporter gene assay; type: functional, cell-based
[17] = tested on: NCI-H460; assay: Induction of apoptosis in human NCI-H460 cells assessed as activation of caspase-3/7 at 0.6 uM after 48 hrs in presence of HCPT by luciferase reporter gene assay; type: functional, cell-based
[18] = tested on: NCI-H460; assay: Induction of apoptosis in human NCI-H460 cells assessed as increase in caspase-9 expression at 0.6 uM in presence of CPT by Western blot method; type: functional, cell-based
[19] = tested on: NCI-H446; assay: Induction of apoptosis in human NCI-H446 cells assessed as increase in cytochrome-C expression at 0.6 uM in presence of CPT by Western blot method; type: functional, cell-based
[20] = tested on: NCI-H446; assay: Induction of apoptosis in human NCI-H446 cells assessed as increase in cleaved PARP expression at 0.6 uM in presence of CPT by Western blot method; type: functional, cell-based
[21] = tested on: NCI-H446; assay: Induction of apoptosis in human NCI-H446 cells assessed as downregulation of Bcl-XL expression at 0.6 uM in presence of CPT by Western blot method; type: functional, cell-based
[22] = tested on: NCI-H1299; assay: Decrease in p38 MAPK protein expression in human NCI-H1299 cells at 0.3 uM in presence of CPT by Western blot method; type: functional, cell-based
[23] = tested on: NCI-H1299; assay: Effect on ERK1/2 protein expression in human NCI-H1299 cells at 0.3 uM in presence of CPT by Western blot method; type: functional, cell-based
[24] = species on record: Homo sapiens; assay: Decrease in Akt phosphorylation in human NCI-H460 cells at 0.6 uM in presence of HCPT by Western blot method; type: cell-based
[25] = target: T1, Mitogen-activated protein kinase; ERK1/ERK2 (Homo sapiens) (UniProt P27361+P28482); assay: Decrease in ERK1/2 phosphorylation in human NCI-H460 cells at 0.6 uM in presence of CPT by Western blot method; type: cell-based
T1 sequence (P27361 whole entry, looked up): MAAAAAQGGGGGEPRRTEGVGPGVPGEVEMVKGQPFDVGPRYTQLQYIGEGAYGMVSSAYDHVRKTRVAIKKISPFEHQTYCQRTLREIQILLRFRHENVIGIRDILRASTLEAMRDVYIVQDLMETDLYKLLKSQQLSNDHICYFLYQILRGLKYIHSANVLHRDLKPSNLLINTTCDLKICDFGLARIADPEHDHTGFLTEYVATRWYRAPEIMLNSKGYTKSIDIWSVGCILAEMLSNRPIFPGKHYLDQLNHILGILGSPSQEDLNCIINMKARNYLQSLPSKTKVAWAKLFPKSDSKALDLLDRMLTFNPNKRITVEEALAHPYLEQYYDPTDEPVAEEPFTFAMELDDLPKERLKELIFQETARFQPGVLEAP
T1 sequence (P28482 whole entry, looked up): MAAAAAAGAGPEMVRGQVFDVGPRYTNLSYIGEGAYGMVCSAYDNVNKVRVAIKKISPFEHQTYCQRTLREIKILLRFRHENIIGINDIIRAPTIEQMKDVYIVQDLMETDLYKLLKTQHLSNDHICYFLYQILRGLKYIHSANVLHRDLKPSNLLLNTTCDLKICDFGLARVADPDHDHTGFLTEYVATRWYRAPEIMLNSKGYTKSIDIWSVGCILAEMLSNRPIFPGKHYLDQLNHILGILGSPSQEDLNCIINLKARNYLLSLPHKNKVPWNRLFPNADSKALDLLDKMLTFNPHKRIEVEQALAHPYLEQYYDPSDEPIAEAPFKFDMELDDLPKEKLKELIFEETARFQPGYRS

[26] = target: T1, Mitogen-activated protein kinase; ERK1/ERK2 (Homo sapiens); assay: Decrease in ERK1/2 phosphorylation in human NCI-H460 cells at 0.6 uM in presence of HCPT by Western blot method; type: cell-based
[27] = target: T2, MAP kinase p38 (Homo sapiens) (UniProt O15264+Q15759+Q16539+P53778); assay: Increase in p38 MAPK phosphorylation in human NCI-H460 cells at 0.6 uM in presence of CPT by Western blot method; type: cell-based
[28] = target: c-Jun N-terminal kinase, JNK (Homo sapiens) (UniProt P45983+P53779+P45984); assay: Increase in JNK phosphorylation in human NCI-H460 cells at 0.6 uM in presence of HCPT by Western blot method; type: cell-based
[29] = tested on: NCI-H446; assay: Effect on ERK1/2 protein expression in human NCI-H446 cells at 0.6 uM in presence of HCPT by Western blot method; type: functional, cell-based
[30] = tested on: NCI-H446; assay: Effect on ERK1/2 protein expression in human NCI-H446 cells at 0.6 uM in presence of CPT by Western blot method; type: functional, cell-based
[31] = target: T1, Mitogen-activated protein kinase; ERK1/ERK2 (Homo sapiens); assay: Effect on ERK1/2 phosphorylation in human NCI-H446 cells at 0.6 uM in presence of HCPT by Western blot method; type: cell-based
[32] = target: T1, Mitogen-activated protein kinase; ERK1/ERK2 (Homo sapiens); assay: Effect on ERK1/2 phosphorylation in human NCI-H446 cells at 0.6 uM in presence of CPT by Western blot method; type: cell-based
[33] = tested on: NCI-H446; assay: Effect on Akt protein expression in human NCI-H446 cells at 0.6 uM in presence of HCPT by Western blot method; type: functional, cell-based
[34] = tested on: NCI-H446; assay: Effect on Akt protein expression in human NCI-H446 cells at 0.6 uM in presence of CPT by Western blot method; type: functional, cell-based
[35] = target: T2, MAP kinase p38 (Homo sapiens); assay: Effect on p38 MAPK phosphorylation in human NCI-H446 cells at 0.6 uM in presence of HCPT by Western blot method; type: cell-based

In the case of C[C@@H]1CC[C@@]2(OC1)O[C@H]1C[C@H]3[C@@H]4CC=C5C[C@@H](O[C@@H]6O[C@H](CO)[C@@H](O[C@@H]7O[C@@H](CO)[C@H](O)[C@H]7O)[C@H](O)[C@H]6O[C@@H]6O[C@@H](C)[C@H](O)[C@@H](O)[C@H]6O)CC[C@]5(C)[C@H]4CC[C@]3(C)[C@H]1[C@@H]2C, the IC50 [1] is reported as < 1000 nM, the IC50 [2] is reported as < 1000 nM and the CI [3] is reported as <1. The CI [4] was <1, the CI [5] was <1 and the Activity [6] was “Active”. For the same molecule, the “fold change (FC)” value [7] was 2, the “fold change (FC)” value [8] was 2 and the Activity [9] was “Active”. The Activity [10] was “Active”, the Activity [11] was “Active” and the Activity [12] was 60%. The Activity [13] was “Active”, the Activity [14] was “Active” and the Activity [15] was “Tde”. The Activity [16] was “inactive”, the Activity [17] was “Active” and the Activity [18] was “Active”. The Activity [19] was “Active”, the Activity [20] was “Active” and the Activity [21] was “Active”. The Activity [22] was “Active”, the Activity [23] was “inactive” and the Activity [24] was “Active”. The Activity [25] was “Active”, the Activity [26] was “Active” and the Activity [27] was “Active”. The Activity [28] was “Active”, the Activity [29] was “Active” and the Activity [30] was “Active”. For the same molecule, the Activity [31] was “Active”, the Activity [32] was “Active” and the Activity [33] was “inactive”. The Activity [34] was “inactive” and the Activity [35] was “inactive”.
